The results in this text go back to article PMC3419191, “Identification of Novel Piperazinylquinoxaline Derivatives as Potent Phosphoinositide 3-Kinase (PI3K) Inhibitors” (PLoS ONE, 2012).

Where only a bound is given, the exact number is not on record here.

One series deals with KB. Kind of series: MTT assay, antiproliferative activity against KB cells. It counts as cell-based. Conditions: Homo sapiens, 72 h, mean of at least two determinations. The source says:
(§1) All synthesized target compounds were firstly tested for their antiproliferative activity against five human cancer cell lines, PC3, A549, HCT116, HL60, and KB, using MTT assay.
(§2) Human prostate cancer PC3 cells, lung adenocarcinoma epithelial A549 cells, colon cancer HCT116 cells, promyelocytic leukemia HL60 cells and nasopharyngeal carcinoma KB cells were obtained from the cell bank of the Institute of Biochemistry and Cell Biology, Chinese Academy of Sciences (Shanghai, China). The inhibitory activity of target compounds against tested cancer cell lines was measured using the MTT assay. PC3, A549, HCT116, HL60, and KB cancer cell lines were cultured in RPMI-1640 medium (Invitrogen, Carlsbad, CA, USA) with heat-inactivated 10% fetal bovine serum, penicillin (100 units/mL) and streptomycin (100 µg/mL) and incubated in an atmosphere with 20% oxygen and 5% carbon dioxide at 37°C. All tested compounds were dissolved in DMSO at concentrations of 10.0 mg/mL and diluted to appropriate concentrations. Cells were plated in 96-well plates for 24 h and subsequently treated with different concentrations of all tested compounds for 72 h. Viable cells were determined using 3-(4,5-dimethylthiazol-2-yl)-2,5-diphenyltetrazolium bromide assay kit (MTT, Sigma) according to operation instructions provided by the manufacturer. The concentration of drug causing 50% inhibition in absorbance compared with control cells (IC50) was calculated using the software of dose-effect analysis with microcomputers.

In another series the test system is HCT116. In words: MTT assay, antiproliferative activity against HCT116 cells. The settings on record: Homo sapiens, HCT-116, 72 h, mean of at least two determinations. It counts as cell-based.
Text: as §1, §2

Another series deals with A549. Kind of series: MTT assay, antiproliferative activity against A549 cells. It counts as cell-based. The settings on record: Homo sapiens, 72 h, mean of at least two determinations.
Text: as §1, §2

In another series the test system is HL60. In words: MTT assay, antiproliferative activity against HL60 cells. It counts as cell-based. Conditions: Homo sapiens, HL-60, 72 h, mean of at least two determinations.
Text: as §1, §2

In a further series the test system is PC3. In words: MTT assay, antiproliferative activity against PC3 cells. It counts as cell-based. Conditions: Homo sapiens, PC-3, 72 h, mean of at least two determinations.
Text: as §1, §2

On to `O=C(c1ccc(Cl)cc1)N1CCN(c2nc3ccccc3nc2S(=O)(=O)c2ccc(Br)cc2)CC1` [Compound 37, 2-(4-(4-Chlorobenzoyl)piperazin-1-yl)-3-(4-bromophenylsulfonyl)quinoxaline], for which the melting point fell in the range of 214 to 216 °C. Also, the midpoint of inhibition in the series on KB, the IC50, lay at 5.09 µM. The compound also showed an IC50 in the series with HCT116 of 10.6 µM. Further, the IC50 in the series with A549 is above 50 µM. The IC50 in the series on HL60 came out at 6.11 µM. Also, half-maximal inhibition with PC3 (IC50) was put at 2.89 µM.
In the case of `Cc1ccc(S(=O)(=O)c2nc3ccccc3nc2N2CCN(C(=O)c3ccccc3)CC2)cc1` [Compound 30, 2-(4-Benzoylpiperazin-1-yl)-3-(4-methylphenylsulfonyl)quinoxaline], the melting point lay within 182 to 185 °C. In the series on KB, the midpoint of inhibition, the IC50, lay at 3.67 µM. In the series on HCT116, this compound gave an IC50 of 6.9 µM. Half-maximal inhibition in the series with A549 (IC50) required 8.03 µM. This compound gave an IC50 in the series on HL60 of 17.3 µM. The compound further showed an IC50 with PC3 of 5.81 µM.
`COc1ccc(S(=O)(=O)c2nc3ccccc3nc2N2CCN(C(=O)c3ccc(Cl)cc3)CC2)cc1` [Compound 36, 2-(4-(4-Chlorobenzoyl)piperazin-1-yl)-3-(4-methoxyphenylsulfonyl)quinoxaline]: the melting point was determined as 179 °C. The compound further registered an IC50 in the series on KB of 6.03 µM. In the series on HCT116, this compound displayed an IC50 of 9.62 µM. Further, the IC50 in the series with A549 was above 50 µM. Also, in the series with HL60, the IC50 was 5.58 µM. This compound returned an IC50 with PC3 of 2.43 µM.
For the compound `O=S(=O)(c1ccc(F)cc1)c1nc2ccccc2nc1N1CCNCC1` [Compound 23, 2-(Piperazin-1-yl)-3-(4-fluorophenylsulfonyl)quinoxaline], the IC50 is 4.58 µM with KB; 2.43 µM with HCT116; 2.79 µM in the series on A549; 1.39 µM with HL60; 2.05 µM in the series with PC3.
The compound `Cc1ccc(S(=O)(=O)c2nc3ccccc3nc2N2CCN(S(=O)(=O)c3ccc(C)cc3)CC2)cc1` [Compound 45, 2-(4-(4-Methylphenylsulfonyl)piperazin-1-yl)-3-(4-methylphenylsulfonyl)-quinoxaline] showed a melting point of 174 to 175 °C. The IC50 in the series on KB worked out at 2.68 µM. The compound further had an IC50 in the series with HCT116 of 1.92 µM. For the same compound, in the series with A549, 49.5 µM corresponded to half-maximal inhibition (IC50). This compound also gave an IC50 with HL60 of 9.28 µM. The IC50 in the series with PC3 turned out to be 3.48 µM.
With `COc1ccc(S(=O)(=O)c2nc3ccccc3nc2N2CCN(S(=O)(=O)c3ccc(C)cc3)CC2)cc1` [Compound 46, 2-(4-(4-Methylphenylsulfonyl)piperazin-1-yl)-3-(4-methoxyphenylsulfonyl)-quinoxaline], the melting point was 172 to 175 °C. The same compound displayed an IC50 with KB of 2.35 µM. In the series with HCT116, this compound gave an IC50 of 14.2 µM. The IC50 in the series with A549 is above 50 µM. The compound further gave an IC50 in the series on HL60 of 15 µM. The IC50 with PC3 worked out at 6.2 µM.
For `COc1ccc(S(=O)(=O)c2nc3ccccc3nc2N2CCN(CCCN3CCOCC3)CC2)cc1` [Compound 51, 2-(4-(3-Morpholinopropyl)piperazin-1-yl)-3-(4-methoxyphenylsulfonyl)-quinoxaline], the IC50 in the series on HCT116 is 2.59 µM; in the series with A549, 2.1 µM; in the series with PC3 it was 9.3 µM.
For `CC(=O)N1CCN(c2nc3ccccc3nc2S(=O)(=O)c2ccc(C)cc2)CC1` [Compound 10, 2-(4-Acetylpiperazin-1-yl)-3-(4-methylphenylsulfonyl)quinoxaline], the melting point was in the range of 148 to 150 °C. This compound registered an IC50 in the series with KB of 3.89 µM. The compound also came in with an IC50 in the series with HCT116 of 2.6 µM. The compound further showed an IC50 in the series with A549 of 2.42 µM. For the same compound, half-maximal inhibition with HL60 (IC50) was put at 3.28 µM. This compound came in with an IC50 with PC3 of 2.27 µM.
The compound `COc1ccc(S(=O)(=O)c2nc3ccccc3nc2N2CCN(C)CC2)cc1` [Compound 16, 2-(4-Methylpiperazin-1-yl)-3-(4-methoxyphenylsulfonyl)quinoxaline] came in with a melting point of 121 to 124 °C. This compound also displayed an IC50 with KB of 2.53 µM. Moreover, the IC50 with HCT116 was found to be 2.37 µM. The IC50 with A549 was 8.57 µM. The compound also yielded a half-maximal inhibitory concentration (IC50) with HL60 of 0.54 µM. Moreover, the IC50 in the series with PC3 amounted to 1.55 µM.
In the case of `O=C(c1ccccc1)N1CCN(c2nc3ccccc3nc2S(=O)(=O)c2ccc(F)cc2)CC1` [Compound 33, 2-(4-Benzoylpiperazin-1-yl)-3-(4-fluorophenylsulfonyl)quinoxaline], the melting point lay in the range of 200 to 202 °C. The same compound showed a half-maximal inhibitory concentration (IC50) with KB of 1.22 µM. Further, the midpoint of inhibition in the series with HCT116, the IC50, lay at 8.88 µM. The IC50 with A549 amounted to 1.16 µM. Further, inhibition with HL60 was half-maximal at 6.95 µM (IC50). In the series on PC3, this compound came in with an IC50 of 1.77 µM.
`COc1ccc(S(=O)(=O)c2nc3ccccc3nc2N2CCN(C(=O)c3ccccc3)CC2)cc1` [Compound 31, 2-(4-Benzoylpiperazin-1-yl)-3-(4-methoxyphenylsulfonyl)quinoxaline]: the melting point lay in the range of 166 to 169 °C. In addition, the IC50 with KB turned out to be 5.65 µM. This compound also gave an IC50 in the series with HCT116 of 17.2 µM. This compound also came in with an IC50 in the series with A549 of 7.43 µM. Further, the midpoint of inhibition in the series with HL60, the IC50, lay at 6.93 µM. Besides, in the series on PC3, the IC50 amounted to 3.63 µM.
For `Cc1ccc(S(=O)(=O)c2nc3ccccc3nc2N2CCNCC2)cc1` [Compound 20, 2-(Piperazin-1-yl)-3-(4-methylphenylsulfonyl)quinoxaline], the IC50 with KB amounted to 7.26 µM; in the series on HCT116, 0.47 µM; in the series on A549, 14.4 µM; with HL60, 0.12 µM; with PC3, 1.32 µM.
`CC(=O)N1CCN(c2nc3ccccc3nc2S(=O)(=O)c2ccc(F)cc2)CC1` [Compound 13, 2-(4-Acetylpiperazin-1-yl)-3-(4-fluorophenylsulfonyl)quinoxaline]: the melting point was in the range of 108 to 112 °C. The same compound yielded an IC50 with KB of 6.15 µM. Besides, in the series on HCT116, it took 4.34 µM to reach half-maximal inhibition (IC50). Besides, half-maximal inhibition in the series on A549 (IC50) was put at 7.12 µM. For the same compound, the IC50 with HL60 was found to be 1.78 µM. Also, it took 3.17 µM to reach half-maximal inhibition in the series on PC3 (IC50).
`CC1CN(c2nc3ccccc3nc2S(=O)(=O)c2ccc(F)cc2)CCN1` (stereo not drawn) [Compound 28, 2-(3-Methylpiperazin-1-yl)-3-(4-fluorophenylsulfonyl)quinoxaline]: the melting point was in the range of 119 to 123 °C. The compound also registered an IC50 in the series with KB of 2.03 µM. In the series on HCT116, the IC50 stood at 2.2 µM. In addition, the midpoint of inhibition with A549, the IC50, lay at 3.45 µM. The same compound displayed an IC50 in the series with HL60 of 1.95 µM. The same compound yielded an IC50 in the series on PC3 of 2.34 µM.
Consider `NC(=O)C1CCN(c2nc3ccccc3nc2S(=O)(=O)c2ccc(F)cc2)CC1` [Compound 8, 2-(4-Carbamoylpiperidin-1-yl)-3-(4-fluorophenylsulfonyl)quinoxaline], for which the melting point is 198 to 202 °C. This compound also displayed an IC50 in the series on KB of 6.45 µM. In the series on HCT116, this compound returned an IC50 of 7.13 µM. Further, in the series on A549, the IC50 came to 10.2 µM. In the series with HL60, this compound came in with an IC50 of 4.15 µM. This compound had an IC50 in the series with PC3 of 4.36 µM.
The compound `NC(=O)C1CCN(c2nc3ccccc3nc2S(=O)(=O)c2ccc(Br)cc2)CC1` [Compound 7, 2-(4-Carbamoylpiperidin-1-yl)-3-(4-bromophenylsulfonyl)quinoxaline] registered a melting point of 209 to 210 °C. Also, in the series on KB, the IC50 is 4.22 µM. In addition, in the series on HCT116, the IC50 turned out to be 1.61 µM. Besides, in the series with A549, the IC50 was 12.1 µM. Besides, half-maximal inhibition with HL60 (IC50) required 0.15 µM. The compound further yielded an IC50 in the series on PC3 of 1.17 µM.
With `CC(=O)N1CCN(c2nc3ccccc3nc2S(=O)(=O)c2ccc(Br)cc2)CC1` [Compound 12, 2-(4-Acetylpiperazin-1-yl)-3-(4-bromophenylsulfonyl)quinoxaline], the melting point was in the range of 174 to 178 °C. Besides, 4.3 µM corresponded to half-maximal inhibition in the series with KB (IC50). For the same compound, it took 0.53 µM to reach half-maximal inhibition in the series on HCT116 (IC50). For the same compound, 9.79 µM corresponded to half-maximal inhibition in the series with A549 (IC50). Besides, in the series on HL60, the IC50 was 0.12 µM. In the series with PC3, this compound displayed an IC50 of 3.03 µM.
For `Cc1ccc(S(=O)(=O)c2nc3ccccc3nc2N2CCC(C(N)=O)CC2)cc1` [Compound 5, 2-(4-Carbamoylpiperidin-1-yl)-3-(4-methylphenylfsulfonyl)quinoxaline], the melting point was in the range of 200 to 203 °C. Further, the IC50 in the series on KB turned out to be 11.8 µM. Further, in the series with HCT116, the IC50 was 1.2 µM. The IC50 with A549 was 27.4 µM. Moreover, in the series with HL60, the IC50 was determined as 0.14 µM. This compound also yielded an IC50 in the series on PC3 of 2.28 µM.
For `O=c1cc(N2CCOCC2)oc2c(-c3ccccc3)cccc12` [LY294002, 2-(4-morpholinyl)-8-phenyl-4H-1-benzopyran-4-one, reference compound], the IC50 in the series on KB amounted to 44.8 µM; in the series with HCT116, 56 µM; in the series with A549, 89.7 µM; in the series with HL60, 9.94 µM; with PC3 it was 61.4 µM.
For `Cc1ccc(S(=O)(=O)c2nc3ccccc3nc2N2CCN(CCCN3CCOCC3)CC2)cc1` [Compound 50, 2-(4-(3-Morpholinopropyl)piperazin-1-yl)-3-(4-methylphenylsulfonyl)quinoxaline], the figures for the IC50 with HCT116, with A549 and in the series with PC3 were 0.31 µM, 0.51 µM and 3.83 µM, respectively.
As to `O=S(=O)(c1ccc(F)cc1)c1nc2ccccc2nc1N1CCN(CCCN2CCOCC2)CC1` [Compound 53, 2-(4-(3-Morpholinopropyl)piperazin-1-yl)-3-(4-fluorophenylsulfonyl)quinoxaline], the values for the concentration for half-maximal inhibition (IC50) in the series on HCT116, with A549 and in the series on PC3 were 0.93 µM, 1.12 µM and 4.8 µM, respectively.
